Test results taken from ChEMBL document CHEMBL1130110 (J Med Chem, 1997).

Experiments:
Glucagon receptor [1] = biological target: T1, Glucagon receptor (Rattus norvegicus, UniProt P30082); experiment: pA2 value against Glucagon Receptor; settings: read-out: pA2 (converted)
Glucagon receptor [2] = biological target: T1, Glucagon receptor; experiment: Binding affinity towards Glucagon receptor in rat liver plasma membranes by displacement of 125 I-labelled glucagon; assay type: cell membranes
[3] = biological target: Glucagon receptor (Rattus norvegicus) (UniProt P30082); experiment: Relative binding potency expressed as receptor binding IC50 for glucagon by receptor binding IC50 for compound
[4] = biological target: Glucagon receptor (Rattus norvegicus) (UniProt P30082); experiment: Percent stimulation of cAMP production over basal.; assay type: functional; set-up: concentration or dose not given beside the values

Sequence of Glucagon receptor (Rattus norvegicus) (P30082 whole entry): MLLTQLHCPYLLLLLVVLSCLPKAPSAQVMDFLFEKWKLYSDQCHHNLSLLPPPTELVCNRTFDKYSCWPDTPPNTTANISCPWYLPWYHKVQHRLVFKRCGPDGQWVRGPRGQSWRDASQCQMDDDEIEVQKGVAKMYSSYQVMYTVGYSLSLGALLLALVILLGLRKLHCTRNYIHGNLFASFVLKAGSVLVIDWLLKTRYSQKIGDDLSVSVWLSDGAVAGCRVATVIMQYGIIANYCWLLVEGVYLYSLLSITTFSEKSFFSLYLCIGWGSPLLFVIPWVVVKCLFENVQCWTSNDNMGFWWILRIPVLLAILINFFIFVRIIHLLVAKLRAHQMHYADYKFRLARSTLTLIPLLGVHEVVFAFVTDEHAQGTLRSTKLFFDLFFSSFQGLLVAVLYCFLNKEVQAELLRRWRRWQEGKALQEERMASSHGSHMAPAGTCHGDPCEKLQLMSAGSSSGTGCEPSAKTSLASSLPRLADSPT
T1 sequence (P30082 whole entry): as above

Kb (Glucagon receptor [1]) [nM] | IC50 (Glucagon receptor [2]) [nM] | Activity [3] [%] | Activity [4] [%] | Compound
– | – | 3.1 | 0 | CSCC[C@@H](NC(=O)[C@@H](CC(C)C)NC(=O)[C@@H](Cc1c[nH]c2ccccc12)NC(=O)[C@@H](CCC(N)=O)NC(=O)[C@H](NC(=O)[C@@H](Cc1ccccc1)NC(=O)[C@@H](CC(=O)O)NC(=O)[C@@H](CCC(N)=O)NC(=O)[C@@H](C)NC(=O)[C@@H](CCCN=C(N)N)NC(=O)[C@@H](CCCN=C(N)N)NC(=O)[C@@H](CO)NC(=O)[C@@H](CC(=O)O)NC(=O)[C@@H](CC(C)C)NC(=O)[C@@H](Cc1ccc(O)cc1)NC(=O)[C@@H](CCCCN)NC(=O)[C@@H](CO)NC(=O)[C@@H](Cc1ccc(O)cc1)NC(=O)[C@@H](CCC(=O)O)NC(=O)[C@@H](CO)NC(=O)[C@H](NC(=O)[C@H](NC(=O)CNC(=O)[C@@H](CCC(N)=O)NC(=O)[C@H](N)CO)[C@H](C)O)[C@H](C)O)C(C)C)C(=O)N[C@H](CC(N)=O)C(=O)N[C@@H](C(N)=O)[C@H](C)O
– | – | 0.3 | 0 | CSCC[C@@H](NC(=O)[C@@H](CC(C)C)NC(=O)[C@@H](Cc1c[nH]c2ccccc12)NC(=O)[C@@H](CCC(N)=O)NC(=O)[C@H](NC(=O)[C@@H](Cc1ccccc1)NC(=O)[C@@H](CC(=O)O)NC(=O)[C@@H](CCC(N)=O)NC(=O)[C@@H](C)NC(=O)[C@@H](CCCN=C(N)N)NC(=O)[C@@H](CCCN=C(N)N)NC(=O)[C@@H](CO)NC(=O)[C@@H](CC(=O)O)NC(=O)[C@@H](CC(C)C)NC(=O)[C@@H](Cc1ccc(O)cc1)NC(=O)[C@@H](CCCCN)NC(=O)[C@@H](CO)NC(=O)[C@@H](Cc1ccc(O)cc1)NC(=O)[C@@H](CC(=O)O)NC(=O)[C@@H](CO)NC(=O)[C@H](NC(=O)[C@H](NC(=O)CNC(=O)[C@@H](CCC(N)=O)NC(=O)[C@@H](CO)NC(=O)[C@H](N)Cc1c[nH]cn1)[C@H](C)O)[C@H](C)O)C(C)C)C(=O)N[C@H](CC(N)=O)C(=O)N[C@@H](C(N)=O)[C@H](C)O
– | – | 3.8 | 0 | CSCC[C@@H](NC(=O)[C@@H](CC(C)C)NC(=O)[C@@H](Cc1c[nH]c2ccccc12)NC(=O)[C@@H](CCC(N)=O)NC(=O)[C@H](NC(=O)[C@@H](Cc1ccccc1)NC(=O)[C@@H](CC(=O)O)NC(=O)[C@@H](CCC(N)=O)NC(=O)[C@@H](C)NC(=O)[C@@H](CCCN=C(N)N)NC(=O)[C@@H](CCCN=C(N)N)NC(=O)[C@@H](CO)NC(=O)[C@@H](CC(=O)O)NC(=O)[C@@H](CC(C)C)NC(=O)[C@@H](Cc1ccc(O)cc1)NC(=O)[C@@H](CCCCN)NC(=O)[C@@H](CO)NC(=O)[C@@H](Cc1ccc(O)cc1)NC(=O)[C@@H](CCC(=O)O)NC(=O)[C@@H](CO)NC(=O)[C@H](NC(=O)[C@@H](Cc1ccc(O)cc1)NC(=O)[C@H](NC(=O)CNC(=O)[C@@H](CCC(N)=O)NC(=O)[C@H](N)CO)[C@H](C)O)[C@H](C)O)C(C)C)C(=O)N[C@H](CC(N)=O)C(=O)N[C@@H](C(N)=O)[C@H](C)O
– | 48 | – | – | CCCC[C@H](NC(=O)[C@@H](NC(=O)CNC(=O)[C@H](CCC(N)=O)NC(=O)[C@@H](N)CO)[C@@H](C)O)C(=O)N[C@H](C(=O)N[C@@H](CO)C(=O)N[C@@H](CCC(=O)O)C(=O)N[C@@H](Cc1ccc(O)cc1)C(=O)N[C@@H](CO)C(=O)N[C@@H](CCCCN)C(=O)N[C@@H](Cc1ccc(O)cc1)C(=O)N[C@@H](CC(C)C)C(=O)N[C@@H](CC(=O)O)C(=O)N[C@@H](CO)C(=O)N[C@@H](CCCN=C(N)N)C(=O)N[C@@H](CCCN=C(N)N)C(=O)N[C@@H](C)C(=O)N[C@@H](CCC(N)=O)C(=O)N[C@@H](CC(=O)O)C(=O)N[C@@H](Cc1ccccc1)C(=O)N[C@H](C(=O)N[C@@H](CCC(N)=O)C(=O)N[C@@H](Cc1c[nH]c2ccccc12)C(=O)N[C@@H](CC(C)C)C(=O)N[C@@H](CCSC)C(=O)N[C@@H](CC(N)=O)C(=O)N[C@H](C(N)=O)[C@@H](C)O)C(C)C)[C@@H](C)O

Second part, the compound before the results:

Compound | Kb (Glucagon receptor [1]) [nM] | IC50 (Glucagon receptor [2]) [nM] | Activity [3] [%] | Activity [4] [%]
CSCC[C@H](NC(=O)[C@H](CC(C)C)NC(=O)[C@H](Cc1c[nH]c2ccccc12)NC(=O)[C@H](CCC(N)=O)NC(=O)[C@@H](NC(=O)[C@H](Cc1ccccc1)NC(=O)[C@H](CC(=O)O)NC(=O)[C@H](CCC(N)=O)NC(=O)[C@H](C)NC(=O)[C@H](CCCN=C(N)N)NC(=O)[C@H](CCCN=C(N)N)NC(=O)[C@H](CO)NC(=O)[C@H](CC(=O)O)NC(=O)[C@H](CC(C)C)NC(=O)[C@H](Cc1ccc(O)cc1)NC(=O)[C@H](CCCCN)NC(=O)[C@H](CO)NC(=O)[C@H](Cc1ccc(O)cc1)NC(=O)[C@H](CCC(=O)O)NC(=O)[C@H](CO)NC(=O)[C@@H](NC(=O)[C@@H](Cc1ccccc1)NC(=O)[C@@H](NC(=O)CNC(=O)[C@H](CCC(N)=O)NC(=O)[C@@H](N)CO)[C@@H](C)O)[C@@H](C)O)C(C)C)C(=O)N[C@@H](CC(N)=O)C(=O)N[C@H](C(N)=O)[C@@H](C)O | 501 | 100 | – | –
CSCC[C@H](NC(=O)[C@H](CC(C)C)NC(=O)[C@H](Cc1c[nH]c2ccccc12)NC(=O)[C@H](CCC(N)=O)NC(=O)[C@@H](NC(=O)[C@H](Cc1ccccc1)NC(=O)[C@H](CC(=O)O)NC(=O)[C@H](CCC(N)=O)NC(=O)[C@H](C)NC(=O)[C@H](CCCNC(=N)N)NC(=O)[C@H](CCCNC(=N)N)NC(=O)[C@H](CO)NC(=O)[C@H](CC(=O)O)NC(=O)[C@H](CC(C)C)NC(=O)[C@H](Cc1ccc(O)cc1)NC(=O)[C@H](CCCCN)NC(=O)[C@H](CO)NC(=O)[C@H](Cc1ccc(O)cc1)NC(=O)[C@H](CCC(=O)O)NC(=O)[C@H](CO)NC(=O)[C@@H](NC(=O)[C@@H](NC(=O)CNC(=O)[C@H](CCC(N)=O)NC(=O)[C@@H](N)CO)[C@@H](C)O)[C@@H](C)O)C(C)C)C(=O)N[C@@H](CC(N)=O)C(=O)N[C@H](C(=O)O)[C@@H](C)O (stereo in doubt; 13) | 631 | 2000 | – | –
CSCC[C@H](NC(=O)[C@H](CC(C)C)NC(=O)[C@H](Cc1c[nH]c2ccccc12)NC(=O)[C@H](CCC(N)=O)NC(=O)[C@@H](NC(=O)[C@H](Cc1ccccc1)NC(=O)[C@H](CC(=O)O)NC(=O)[C@H](CCC(N)=O)NC(=O)[C@H](C)NC(=O)[C@H](CCCNC(=N)N)NC(=O)[C@H](CCCNC(=N)N)NC(=O)[C@H](CO)NC(=O)[C@H](CC(=O)O)NC(=O)[C@H](CC(C)C)NC(=O)[C@H](Cc1ccc(O)cc1)NC(=O)[C@H](CCCCN)NC(=O)[C@H](CO)NC(=O)[C@H](Cc1ccc(O)cc1)NC(=O)[C@H](CC(=O)O)NC(=O)[C@H](CO)NC(=O)[C@@H](NC(=O)[C@@H](NC(=O)CNC(=O)[C@H](CCC(N)=O)NC(=O)[C@@H](N)CO)[C@@H](C)O)[C@@H](C)O)C(C)C)C(=O)N[C@@H](CC(N)=O)C(=O)N[C@H](C(=O)O)[C@@H](C)O | 708 | 200 | – | –
H-HSQGTTSDYSKYLDSRRAQDFVQWLMNT-OH | 562 | 500 | – | –
CSCC[C@@H](NC(=O)[C@@H](CC(C)C)NC(=O)[C@@H](Cc1c[nH]c2ccccc12)NC(=O)[C@@H](CCC(N)=O)NC(=O)[C@H](NC(=O)[C@@H](Cc1ccccc1)NC(=O)[C@@H](CC(=O)O)NC(=O)[C@@H](CCC(N)=O)NC(=O)[C@@H](C)NC(=O)[C@@H](CCCN=C(N)N)NC(=O)[C@@H](CCCN=C(N)N)NC(=O)[C@@H](CO)NC(=O)[C@@H](CC(=O)O)NC(=O)[C@@H](CC(C)C)NC(=O)[C@@H](Cc1ccc(O)cc1)NC(=O)[C@@H](CCCCN)NC(=O)[C@@H](CO)NC(=O)[C@@H](Cc1ccc(O)cc1)NC(=O)[C@@H](CC(=O)O)NC(=O)[C@@H](CO)NC(=O)[C@H](NC(=O)[C@H](NC(=O)CNC(=O)[C@@H](CCC(N)=O)NC(=O)[C@H](N)CO)[C@H](C)O)[C@H](C)O)C(C)C)C(=O)N[C@H](CC(N)=O)C(=O)N[C@@H](C(N)=O)[C@H](C)O | – | – | 1.2 | 0
CSCC[C@@H](NC(=O)[C@@H](CC(C)C)NC(=O)[C@@H](Cc1c[nH]c2ccccc12)NC(=O)[C@@H](CCC(N)=O)NC(=O)[C@H](NC(=O)[C@@H](Cc1ccccc1)NC(=O)[C@@H](CC(=O)O)NC(=O)[C@@H](CCC(N)=O)NC(=O)[C@@H](C)NC(=O)[C@@H](CCCN=C(N)N)NC(=O)[C@@H](CCCN=C(N)N)NC(=O)[C@@H](CO)NC(=O)[C@@H](CC(=O)O)NC(=O)[C@@H](CC(C)C)NC(=O)[C@@H](Cc1ccc(O)cc1)NC(=O)[C@@H](CCCCN)NC(=O)[C@@H](CO)NC(=O)[C@@H](Cc1ccc(O)cc1)NC(=O)[C@@H](CCC(=O)O)NC(=O)[C@@H](CO)NC(=O)[C@H](NC(=O)[C@H](Cc1ccccc1)NC(=O)[C@H](NC(=O)CNC(=O)[C@@H](CCC(N)=O)NC(=O)[C@H](N)CO)[C@H](C)O)[C@H](C)O)C(C)C)C(=O)N[C@H](CC(N)=O)C(=O)N[C@@H](C(N)=O)[C@H](C)O | – | – | 1.5 | 0
CSCC[C@@H](NC(=O)[C@@H](CC(C)C)NC(=O)[C@@H](Cc1c[nH]c2ccccc12)NC(=O)[C@@H](CCC(N)=O)NC(=O)[C@H](NC(=O)[C@@H](Cc1ccccc1)NC(=O)[C@@H](CC(=O)O)NC(=O)[C@@H](CCC(N)=O)NC(=O)[C@@H](C)NC(=O)[C@@H](CCCN=C(N)N)NC(=O)[C@@H](CCCN=C(N)N)NC(=O)[C@@H](CO)NC(=O)[C@@H](CC(=O)O)NC(=O)[C@@H](CC(C)C)NC(=O)[C@@H](Cc1ccc(O)cc1)NC(=O)[C@@H](CCCCN)NC(=O)[C@@H](CO)NC(=O)[C@@H](Cc1ccc(O)cc1)NC(=O)[C@@H](CCC(=O)O)NC(=O)[C@@H](CO)NC(=O)[C@H](NC(=O)[C@H](NC(=O)CNC(=O)[C@@H](CCC(N)=O)NC(=O)[C@H](N)CO)[C@H](C)O)[C@H](C)O)C(C)C)C(=O)N[C@H](CC(N)=O)C(=O)N[C@@H](C(=O)O)[C@H](C)O (stereo in doubt; 13) | – | – | < 0.1 | 0
CSCC[C@@H](NC(=O)[C@@H](CC(C)C)NC(=O)[C@@H](Cc1c[nH]c2ccccc12)NC(=O)[C@@H](CCC(N)=O)NC(=O)[C@H](NC(=O)[C@@H](Cc1ccccc1)NC(=O)[C@@H](CC(=O)O)NC(=O)[C@@H](CCC(N)=O)NC(=O)[C@@H](C)NC(=O)[C@@H](CCCN=C(N)N)NC(=O)[C@@H](CCCN=C(N)N)NC(=O)[C@@H](CO)NC(=O)[C@@H](CC(=O)O)NC(=O)[C@@H](CC(C)C)NC(=O)[C@@H](Cc1ccc(O)cc1)NC(=O)[C@@H](CCCCN)NC(=O)[C@@H](CO)NC(=O)[C@@H](Cc1ccc(O)cc1)NC(=O)[C@@H](CCC(=O)O)NC(=O)[C@@H](CO)NC(=O)[C@H](NC(=O)[C@@H](Cc1c[nH]c2ccccc12)NC(=O)[C@H](NC(=O)CNC(=O)[C@@H](CCC(N)=O)NC(=O)[C@H](N)CO)[C@H](C)O)[C@H](C)O)C(C)C)C(=O)N[C@H](CC(N)=O)C(=O)N[C@@H](C(N)=O)[C@H](C)O | – | – | 7.9 | 0
